Data reported in patent US20100076005A1, “ISOCARBOSTYRIL ALKALOID DERIVATIVES HAVING ANTI-PROLIFERATIVE AND ANTI-MIGRATORY ACTIVITIES” (Unibioscreen SA, priority 2006, published 2010).

Columns and labels:
[1] = system: six human cancer cell lines (prostate, glioma, pancreas, colon, lung, and breast cancers); assay: MTT test of overall cell growth, mean of six human cancer cell lines; format: cell-based; details: 72 hours of incubation, mean of the six human cancer cell lines, range of molar concentrations giving 50% inhibition of overall tumor cell growth
Protocol: MTT tests were performed in order to rapidly, i.e. within 5 days, measure the effect of compounds of this invention on the overall cell growth. The test measured the number of metabolically active living cells that were able to transform the yellow product 3-(4,5-dimethylthiazol-2-yl)-2,5-diphenyl tetrazolium bromide (herein referred as MTT) into the blue product formazan dye by mitochondrial reduction. The amount of formazan obtained at the end of the experiment, measured by means of a spectrophotometer, is directly proportional to the number of living cells.
Six human cancer cell lines described in table 7 were used in the following MTT tests. These cancer cell lines cover six histological cancer types, being prostate, glioma, pancreas, colon, lung, and breast cancers.
To perform the assay, cells were allowed to grow in 96-well micro-wells with a flat bottom with an amount of 100 μl of cell suspension per well with 1,000 to 4,000 cells/well depending on the cell type used. Each cell line was seeded in a well known MEM 10% serum culture medium.
The detailed experimental procedure was the following: after a 24-hour period of incubation at 37° C., the culture medium was replaced by 100 μl of fresh medium in which the tested compound was previously dissolved, at the following molar concentrations: 10^−9 M, 5.10^−9 M, […], 10^−7 M, 5.10^−7 M, 10^−6 M, 5.10^−6 M, and […]. Each experiment was repeated 6 times.
After 72 hours of incubation at 37° C. with (experimental conditions) or without (control condition) the compound to be tested, the medium was replaced by 100 μl MTT dissolved in RPMI (1640 without phenol red) at a concentration of 1 mg/ml. The micro-wells were subsequently incubated during 3 hours at 37° C. and centrifuged at 400 g during 10 minutes. MTT was removed and formazan crystals formed were dissolved in 100 μl DMSO. The micro-wells were shaken for 5 minutes and read on a spectrophotometer at wavelengths of 570 nm (maximum formazan absorbance) and 630 nm (background noise).
For each experimental condition, the mean optical density was calculated, allowing the determination of the percentage of remaining living cells in comparison to the control.

[2] = in vivo; details: mouse, maximum tolerated dose, single intravenous dose, healthy mice, survival and weights recorded up to 14 days
Protocol: The maximum tolerated dose (herein after MTD) is defined as the maximum amount of a given drug which can be administered acutely (i.e. in one intraperitoneal, intravenous, subcutaneous or oral single dose) to healthy animals, i.e. animals not grafted with tumors. In this assay, compounds were administered intravenously. The survival times and weights of the animals were recorded up to 14 days post injection. Five different doses of each compound were used for the determination of the MTD index. Each experimental group comprised 3 mice for the determination of the MTD (expressed in mg/kg).

[3] = system: PC3 (apoptosis-resistant cancer cells); assay: Cellular imaging (computer-assisted phase-contrast microscopy): cell migration and global growth ratio; format: cell-based, human; details: PC3, 100 nM; for Ratio GGRtreated cells/GGRcontrol cells: 72 h, global growth ratio; for effect on cell migration: filmed for 72 h
Protocol: (§1) A cellular imaging approach (Debeir et al., Cytometry 60:29-40, 2004; Debeir et al., IEEE Trans Med Imaging 24:697-711, 2005) was used to investigate whether the isocarbostyril alkaloid derivatives of the present invention were able to impair cell proliferation and cell migration in apoptosis-sensitive (U-373MG—see Table 7) as well as apoptosis-resistant (PC3—see Table 7) cancer cells. Cellular imaging relied on the use of computer-assisted phase-contrast microscopy making possible to film the behavior of living cells in culture dishes for several days.
(§2) Cells were seeded in 25-cm^2 at a low density, treated or not with the compounds of the present invention (at a concentration of 100 nM) and filmed thereafter for a period of 72 h. The analysis of the films was performed by two operators, working independently. The effect on cell migration was characterized as +++ (high effect: cell migration of most cells is drastically altered for most of the duration of the film), ++ (medium effect: compound altering cell migration of an important proportion of the cells although less drastically), + (low effect: compound affecting cell migration of a small part of the cell population, or only for a limited part of the 72 h incubation), − (no effect: as compared to the control conditions, no difference is observed). The effect on the overall growth was measured by counting the number of cells on the first (Oh) and the last image (72 h) of each film. The global growth ratio (GGR) was then deduced by dividing the number of cells on the last image by the number of cells on the first image. The ratio GGRtreated cells/GGRcontrol cells, was further calculated thereby obtaining a value that describes the effect of compounds of the present invention on the overall cell growth.

[4] = system: U-373MG (apoptosis-sensitive cancer cells); assay: as above; format: cell-based, human; details: 100 nM; for Ratio GGRtreated cells/GGRcontrol cells: 72 h, global growth ratio; for effect on cell migration: filmed for 72 h
Protocol: as §1, §2

| Compound | IC50 [1] | MTD at 14 days [2] | Ratio GGRtreated cells/GGRcontrol cells [3] | effect on cell migration [3] | Ratio GGRtreated cells/GGRcontrol cells [4] | effect on cell migration [4] |
| --- | --- | --- | --- | --- | --- | --- |
| O=C1N[C@@H]2C(=C[C@H](O)[C@@H](O)[C@H]2OS(=O)(=O)[O-])c2cc3c(c(O)c21)OCO3.[Na+] [Compound 1, (2S,3R,4S,4aR)-2,3,7-trihydroxy-(1,3)dioxolo(4,5-j)-6-oxo-2,3,4,4a,5,6-hexahydrophenanthridin-4-yl sodium sulfate] | 1 to 5 µM | > 80 mg/kg |  |  |  |  |
| CCOC(=O)COc1c2c(cc3c1C(=O)N[C@@H]1C3=C[C@H](OC(C)=O)C(OC(C)=O)[C@H]1OC(C)=O)OCO2 (stereo partly drawn) [Compound 2, ethyl ({(2S,3R,4S,4aR)-2,3,4-tris[(methylcarbonyl)oxy]-(1,3)dioxolo(4,5-j)-6-oxo-2,3,4,4a,5,6-hexahydrophenanthridin--7-yl}oxy)acetate] | > 10 µM |  |  |  |  |  |
| CCOC(=O)COc1c2c(cc3c1C(=O)N(CC(=O)OCC)[C@@H]1C3=C[C@H](OC(C)=O)C(OC(C)=O)[C@H]1OC(C)=O)OCO2 (stereo partly drawn) [Compound 3, ethyl [(2S,3R,4S,4aR)-2,3,4-tris[(methylcarbonyl)oxy]-(1,3)dioxolo(4,5-j)-7-(2-ethoxy-2-oxoethoxy)-6-oxo-2,3,4,4a,5,6-hexahydrophenanthridin--5(3H)-yl]acetate] | > 10 µM |  |  |  |  |  |
| CC(=O)O[C@@H]1[C@H](OC(C)=O)[C@@H](OC(C)=O)C=C2c3cc4c(c(O)c3C(=S)N[C@H]21)OCO4 [Compound 4, (2S,3R,4S,4aR)-7-hydroxy-(1,3)dioxolo(4,5-j)-6-thioxo-2,3,4,4a,5,6-hexahydrophenanthridin--2,3,4-triyl triacetate] | 1 to 5 µM | 40 mg/kg |  |  |  |  |
| COC(=O)COc1c2c(cc3c1C(=O)N[C@@H]1C3=C[C@H](O)[C@@H](O)[C@H]1O)OCO2 [Compound 5, methyl {[(2S,3R,4S,4aR)-2,3,4-trihydroxy-(1,3)dioxolo(4,5-j)-6-oxo-3,4,4a,5-tetrahydrophenanthridin-6(2H)-7-yl]oxy}acetate] | 5 to 10 µM |  |  |  |  |  |
| O=C(O)COc1c2c(cc3c1C(=O)N[C@@H]1C3=C[C@H](O)[C@@H](O)[C@H]1O)OCO2 [Compound 6, {[(2S,3R,4S,4aR)-2,3,4-trihydroxy-(1,3)dioxolo(4,5-j)-6-oxo-3,4,4a,5-tetrahydrophenanthridin-6(2H)-7-yl]oxy}acetic acid] | 5 to 10 µM |  |  |  |  |  |
| CC(=O)O[C@@H]1[C@H](OC(C)=O)[C@@H](OC(C)=O)C=C2c3cc4c(c(OCc5ccc6ccccc6c5)c3C(=O)N[C@H]21)OCO4 [Compound 7, (2S,3R,4S,4aR)-7-[(2-naphthylmethoxy]-(1,3)dioxolo(4,5-j)-6-oxo-2,3,4,4a,5,6-hexahydrophenanthridin-2,3,4-triyl triacetate] | 1 to 5 µM |  |  |  |  |  |
| O=C1N[C@@H]2C(=C[C@H](O)[C@@H](O)[C@H]2O)c2cc3c(c(OCc4ccc5ccccc5c4)c21)OCO3 [Compound 8] | 1 to 5 µM | > 80 mg/kg |  |  |  |  |
| O=C1c2c(cc3c(c2OCc2ccccc2)OCO3)C2=C[C@H](O)[C@@H](O)[C@@H](O)[C@@H]2N1Cc1ccccc1 [Compound 9, (2S,3R,4S,4aR)-2,3,4-trihydroxy-7-[benzyloxy]-5-benzyl-(1,3)dioxolo(4,5-j)-3,4,4a,5-tetrahydrophenanthridin-6(2H)-one] | > 10 µM | 40 mg/kg |  |  |  |  |
| CC(=O)Oc1c2c(cc3c1C(=O)N[C@@H]1C3=C[C@H](OC(C)=O)[C@@H](O)[C@H]1O)OCO2 [Compound 10, (2S,3S,4S,4aR)-3,4-dihydroxy-(1,3)dioxolo(4,5-j)-6-oxo-2,3,4,4a,5,6-hexahydrophenanthridin--2,7-diyl diacetate] | 0.1 to 0.5 µM | > 80 mg/kg | 1.38 | + | 1.06 | − |
| CC(=O)O[C@H]1C=C2c3cc4c(c(O)c3C(=O)N[C@H]2[C@H](O)[C@@H]1O)OCO4 [Compound 11, (2S,3S,4S,4aR)-3,4,7-trihydroxy-(1,3)dioxolo(4,5-j)-6-oxo-2,3,4,4a,5,6-hexahydrophenanthridin--2-yl acetate] | 0.1 to 0.5 µM | > 80 mg/kg | 0.40 | +++ | 0.42 | ++ |
| O=C(O[C@H]1C=C2c3cc4c(c(O)c3C(=O)N[C@H]2[C@H](O)[C@@H]1O)OCO4)c1ccccc1 [Compound 13, (2S,3S,4S,4aR)-3,4,7-trihydroxy-(1,3)dioxolo(4,5-j)-6-oxo-2,3,4,4a,5,6-hexahydrophenanthridin--2-yl benzoate] | 0.01 to 0.05 µM | 10 mg/kg | 0.31 | +++ | 0.45 | ++ |
| CCC(=O)O[C@H]1C=C2c3cc4c(c(O)c3C(=O)N[C@H]2[C@H](O)[C@@H]1O)OCO4 [Compound 19, (2S,3S,4S,4aR)-3,4,7-trihydroxy-(1,3)dioxolo(4,5-j)-6-oxo-2,3,4,4a,5,6-hexahydrophenanthridin-2-yl propionate] | 0.01 to 0.05 µM | 40 mg/kg |  |  |  |  |
| CC(C)C(=O)O[C@H]1C=C2c3cc4c(c(O)c3C(=O)N[C@H]2[C@H](O)[C@@H]1O)OCO4 [Compound 20, (2S,3S,4S,4aR)-3,4,7-trihydroxy-(1,3)dioxolo(4,5-j)-6-oxo-2,3,4,4a,5,6-hexahydrophenanthridin-2-yl 2-methylpropanoate] | 0.01 to 0.05 µM | 40 mg/kg |  |  |  |  |
| O=C1N[C@@H]2C(=C[C@H](O)[C@@H](O)[C@H]2O)c2cc3c(c(O)c21)OCO3 [narciclasine, reference compound] | 0.01 to 0.05 µM |  |  |  |  |  |
